Data: patent publication US10172787B2, “Method of regulating a condition of mammalian keratinous tissue” (priority 2015, dated 2019)

System: interleukin-18 (IL-18)
Test: Skin sensitization potential: IL-18 production in HEK
Type: cell-based, human
Conditions: 16 hours
Method: It is possible for a material to not be cytotoxic, and yet be unsafe due to provoking an allergic reaction upon skin contact. Typically, initial exposure to an allergen sensitizes the immune system, and following exposures cause an allergic response. […] Thus, IL-18 production in HEK was evaluated to determine sensitization potential.
Normal human adult epidermal keratinocytes (HEK) were cultured as described above for the cytoxicity evaluation. […] The cell lysates were collected, and IL-18 was quantified using Human IL-18 ELISA Kit (Catalog #7620, produced by MBL International Co., Woburn, Mass., USA). […] Fold changes of IL-18 levels between test articles and respective vehicle controls were calculated and compared to pPD (positive control). […]

Nc1ccc(N)cc1 [benchmark sensitizer, para-phenylenediamine]
IL18 Maximum fold (vs vehicle control): 7.8 fold)
